From patent US11919897B2, “Inhibitors of human immunodeficiency virus replication” (VIIV HEALTHCARE UK (No. 5) LIMITED, priority 2018, dated 2024)
Where two headings read alike, the source gives them in different places.

Assays:
Type in all cases: cell-based
uninfected MT2 cells = experiment: Compound cytotoxicity, XTT-based colorimetric assay; conditions: day 4, XTT assay
Procedure: (§1) Compound cytotoxicity and the corresponding CC50 values were determined using the same protocol as described in the antiviral assay except that uninfected cells were used. Cytotoxicity was assessed on day 4 in uninfected MT2 cells by using an XTT (2,3-bis[2-Methoxy-4-nitro-5-sulfophenyl]-2H-tetrazolium-5-carboxyanilide inner salt)-based colorimetric assay (Sigma-Aldrich, St Louis, Mo.).

[1] = system: recombinant NL4-3 virus (nef section replaced with Renilla luciferase gene) in MT-2 cells; experiment: HIV cell culture assay (antiviral activity, luciferase readout in infected MT-2 cells)
Procedure: HIV cell culture assay-MT-2 cells, 293T cells and the proviral DNA clone of NL4-3 virus were obtained from the NIH AIDS Research and Reference Reagent Program. MT-2 cells were propagated in RPMI 1640 media supplemented with 10% heat inactivated fetal bovine serum (FBS), 100 μg/ml penicillin G and up to 100 units/mL streptomycin. The 293T cells were propagated in DMEM media supplemented with 10% heat inactivated FBS, 100 μg/mL penicillin G and 100 μg/mL streptomycin. A recombinant NL4-3 proviral clone, in which a section of the nef gene was replaced with the Renilla luciferase gene, was used to make the reference virus used in these studies. The recombinant virus was prepared through transfection of the recombinant NL4-3 proviral clone into 293T cells using Transit-293 Transfection Reagent from Minis Bio LLC (Madison, WI). Supernatent was harvested after 2-3 days and the amount of virus present was titered in MT-2 cells using luciferase enzyme activity as a marker by measuring luciferase enzyme activity. Luciferase was quantitated using the EnduRen Live Cell Substrate from Promega (Madison, WI). Antiviral activities of compounds toward the recombinant virus were quantified by measuring luciferase activity in MT-2 cells infected for 4-5 days with the recombinant virus in the presence of serial dilutions of the compound.
The 50% effective concentration (EC50) was calculated by using the exponential form of the median effect equation where (Fa)=1/[1+(ED50/drug conc.)m] (Johnson V A, Byington R T. Infectivity Assay. In Techniques in HIV Research. ed. Aldovini A, Walker B D. 71-76. New York: Stockton Press. 1990).

[2] = Compound cytotoxicity, XTT-based colorimetric assay; conditions: human; uninfected MT2 cells, day 4, XTT assay
Procedure: as §1

[3] = MT-2 cells infected for 4-5 days with recombinant NL4-3 Renilla luciferase virus, luciferase activity, read-out: EC50

Molecule | CC50 (uninfected MT2 cells) | EC50 [1, 3] | CC50 at 4 days [2] | EC50 ([1]; Renilla, NL43)
N—((S)-1-((3P)-3-(4-chloro-1-(2,2-difluoroethyl)-3-(methylsulfonamido)-1H-indazol-7-yl)-7-(2-cyclopropylethoxy)-4-oxo-3,4-dihydropyrido[2,3-d]pyrimidin-2-yl)-2-(3,5-difluorophenyl)ethyl)-2-((3bS,4aR)-3-(difluoromethyl)-5,5-difluoro-3b,4,4a,5-tetrahydro-1H-cyclopropa[3,4]cyclopenta[1,2-c]pyrazol-1-yl)acetamide [Example 22] | > 500 nM | 0.29 nM | – | –
N—((S)-1-((3P)-3-(4-chloro-1-methyl-3-(methylsulfonamido)-1H-indazol-7-yl)-4-oxo-7-(pyrimidin-2-ylmethoxy)-3,4-dihydropyrido[2,3-d]pyrimidin-2-yl)-2-(3,5-difluorophenyl)ethyl)-2-((3bS,4aR)-3-(difluoromethyl)-5,5-difluoro-3b,4,4a,5-tetrahydro-1H-cyclopropa[3,4]cyclopenta[1,2-c]pyrazol-1-yl)acetamide [Example 9] | > 1000 nM | 0.03 nM | – | –
Cn1nc(NS(C)(=O)=O)c2c(Cl)ccc(-n3c([C@H](Cc4cc(F)cc(F)c4)NC(=O)Cn4nc(C(F)F)c5c4C(F)(F)[C@@H]4C[C@H]54)nc4nc(OCCN5CCCCC5)ccc4c3=O)c21 (atropisomer, axis not shown; (P)) [Example 11, N—((S)-1-((3P)-3-(4-chloro-1-methyl-3-(methylsulfonamido)-1H-indazol-7-yl)-4-oxo-7-(2-(piperidin-1-yl)ethoxy)-3,4-dihydropyrido[2,3-d]pyrimidin-2-yl)-2-(3,5-difluorophenyl)ethyl)-2-((3bS,4aR)-3-(difluoromethyl)-5,5-difluoro-3b,4,4a,5-tetrahydro-1H-cyclopropa[3,4]cyclopenta[1,2-c]pyrazol-1-yl)acetamide] | – | – | > 1000 nM | 0.49 nM
